Reference: patent US20180008587A1, “THIOHYDANTOIN ANDROGEN RECEPTOR ANTAGONISTS FOR THE TREATMENT OF CANCER” (Jaressen Pharmaceutica NV, priority 2016, published 2018)
Positions count from the first letter of the chain named. Where two headings read alike, the source gives them in different places.

What was measured:
Type in all cases: cell-based
[1] = target: T1, F876L mutant Androgen Receptor (AR-F876L) (Homo sapiens, UniProt P10275, F877L); test: LNCaP-AR-F876L ANT reporter assay (ARE firefly luciferase, antagonist mode); settings: for Emax: read-out: LNCaP-AR-F876L ANT MAX % Inh; for IC50: read-out: LNCaP-AR-F876L ANT pIC50 (converted)
T1 construct: expressed in transfected cells; host or cells: LNCaP (LNCaP F876L)
T1 sequence (P10275 1-920 F877L): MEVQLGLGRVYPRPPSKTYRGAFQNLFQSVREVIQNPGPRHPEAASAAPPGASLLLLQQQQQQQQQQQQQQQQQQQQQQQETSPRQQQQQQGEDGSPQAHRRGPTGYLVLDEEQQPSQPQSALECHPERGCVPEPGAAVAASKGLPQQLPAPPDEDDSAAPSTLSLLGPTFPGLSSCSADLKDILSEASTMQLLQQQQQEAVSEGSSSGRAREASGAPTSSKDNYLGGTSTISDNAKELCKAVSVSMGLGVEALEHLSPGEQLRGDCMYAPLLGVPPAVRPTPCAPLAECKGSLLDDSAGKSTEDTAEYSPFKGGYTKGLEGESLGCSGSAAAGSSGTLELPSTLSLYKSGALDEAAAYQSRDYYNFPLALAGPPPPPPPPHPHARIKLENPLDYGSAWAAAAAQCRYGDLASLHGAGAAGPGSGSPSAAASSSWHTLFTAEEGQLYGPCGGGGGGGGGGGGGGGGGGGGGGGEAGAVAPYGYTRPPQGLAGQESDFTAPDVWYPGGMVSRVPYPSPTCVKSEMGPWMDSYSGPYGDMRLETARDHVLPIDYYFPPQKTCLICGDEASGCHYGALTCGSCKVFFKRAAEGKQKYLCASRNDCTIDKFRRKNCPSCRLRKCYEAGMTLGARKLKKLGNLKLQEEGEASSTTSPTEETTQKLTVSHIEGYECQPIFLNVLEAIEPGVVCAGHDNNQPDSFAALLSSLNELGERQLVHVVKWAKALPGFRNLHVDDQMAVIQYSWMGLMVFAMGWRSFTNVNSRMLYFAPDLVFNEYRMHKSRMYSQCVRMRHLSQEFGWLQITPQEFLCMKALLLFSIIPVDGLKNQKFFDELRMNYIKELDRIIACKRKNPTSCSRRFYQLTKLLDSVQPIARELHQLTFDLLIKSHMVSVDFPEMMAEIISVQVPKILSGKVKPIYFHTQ
Summary of the method: (§1)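 Read-out is luciferase luminescence taken 1 h after Steady-Glo addition, following 20-24 h compound exposure at 37 °C in LNCaP pools stably carrying wild-type or F876L AR. Cells were grown in charcoal-stripped serum. Antagonist wells received agonist at 400 pM (WT) or 600 pM (F876L).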

[2] = target: T2, wild-type Androgen Receptor (AR-wt) (Homo sapiens, UniProt P10275); test: LNCaP-AR-wt ANT reporter assay (ARE firefly luciferase, antagonist mode); settings: for IC50: antagonist mode, 400 pM R-1881 challenge, −Log10(IC50 [Molar]), read-out: LNCaP-AR-wt ANT pIC50 (converted); for Emax: read-out: LNCaP-AR-wt ANT MAX % Inh
T2 construct: expressed in transfected cells; host or cells: LNCaP (LNCaP AR (cs))
T2 sequence (P10275 1-920): T1 sequence (P10275 1-920 F877L) with L877F
Summary of the method: as §1

[3] = target: T2, wild-type Androgen Receptor (AR-wt); test: LNCaP-AR-wt AG reporter assay (ARE firefly luciferase, agonist mode); settings: for Emax: read-out: LNCaP-AR-wt AG MAX % Stim
Summary of the method: as §1

[4] = target: T1, F876L mutant Androgen Receptor (AR-F876L); test: LNCaP-AR-F876L AG reporter assay (ARE firefly luciferase, agonist mode); settings: for Emax: read-out: LNCaP-AR-F876L AG MAX % Stim
Summary of the method: as §1

[5] = maximum % inhibition of R1881 control response over tested concentration range
[6] = agonist mode, −Log10(EC50 [Molar]), read-out: LNCaP-AR-wt AG pEC50 (converted)
[7] = agonist mode, −Log10(EC50 [Molar]), read-out: LNCaP-AR-F876L AG pEC50 (converted)
[8] = maximum % stimulation (agonist response) over tested concentration range

SMILES: N#Cc1ncc(N2C(=O)C3(CCC3)N(c3ccc(Oc4ccccc4)cc3)C2=S)cc1C(F)(F)F [Cpd 99, 5-[5-oxo-8-(4-phenoxyphenyl)-7-thioxo-6,8-diazaspiro[3.4]octan-6-yl]-3-(trifluoromethyl)pyridine-2-carbonitrile]
- Emax [1, 5]: 85.9%
- IC50 [1]: 389 nM
- IC50 [2]: 417 nM
- Emax [2, 5]: 97.2%
- EC50 [3, 6]: > 15100 nM
- Emax [3]: 1.6%
- EC50 [4, 7]: > 15100 nM
- Emax [4]: 1.6%

SMILES: Cc1cc(N2C(=O)C3(CCC3)N(c3ccc(OCCc4ccccn4)c(F)c3)C2=S)cnc1C#N [Cpd 32, 5-[8-[3-fluoro-4-[2-(2-pyridyl)ethoxy]phenyl]-5-oxo-7-thioxo-6,8-diazaspiro[3.4]octan-6-yl]-3-methyl-pyridine-2-carbonitrile]
- Emax [1, 5]: 101%
- IC50 [1]: 282 nM
- IC50 [2]: 490 nM
- Emax [2, 5]: 102%
- EC50 [3, 6]: > 15100 nM
- Emax [3, 8]: 0.7%
- EC50 [4, 7]: > 15100 nM
- Emax [4, 8]: 0.1%

SMILES: CCOC(=O)CCCNC(=O)c1ccc(N2C(=S)N(c3cnc(C#N)c(C(F)(F)F)c3)C(=O)C23CCC3)cc1F [Cpd 82, ethyl 4-[[4-[6-[6-cyano-5-(trifluoromethyl)-3-pyridyl]-5-oxo-7-thioxo-6,8-diazaspiro[3.4]octan-8-yl]-2-fluoro-benzoyl]amino]butanoate]
- Emax [1, 5]: 95.5%
- IC50 [1]: 437 nM
- IC50 [2]: 363 nM
- Emax [2, 5]: 103%
- EC50 [3, 6]: > 15100 nM
- Emax [3, 8]: 0%
- EC50 [4, 7]: > 15100 nM
- Emax [4, 8]: 1.2%

SMILES: Cc1cc(N2C(=O)C3(CCC3)N(c3ccc(C(=O)Nc4ccc(F)cc4)c(F)c3)C2=S)cnc1C#N [Cpd 84, 4-[6-(6-cyano-5-methyl-3-pyridyl)-5-oxo-7-thioxo-6,8-diazaspiro[3.4]octan-8-yl]-2-fluoro-N-(4-fluorophenyl)benzamide]
- Emax [1, 5]: 91.9%
- IC50 [1]: 479 nM
- IC50 [2]: 912 nM
- Emax [2, 5]: 87.8%
- EC50 [3, 6]: > 15100 nM
- Emax [3, 8]: 1%
- EC50 [4, 7]: > 15100 nM
- Emax [4, 8]: 1.3%

SMILES: N#Cc1ncc(N2C(=O)C3(CCC3)N(c3ccc(C(N)=O)c(F)c3)C2=S)cc1C(F)(F)F [Cpd 80, 4-[6-[6-cyano-5-(trifluoromethyl)-3-pyridyl]-5-oxo-7-thioxo-6,8-diazaspiro[3.4]octan-8-yl]-2-fluoro-benzamide]
- Emax [1, 5]: 95.4%
- IC50 [1]: 427 nM
- IC50 [2]: 891 nM
- Emax [2, 5]: 100%
- EC50 [3, 6]: > 15100 nM
- Emax [3, 8]: 0.4%
- EC50 [4, 7]: > 15100 nM
- Emax [4, 8]: 1.2%

SMILES: CN1CCC(NC(=O)c2ccc(N3C(=S)N(c4cnc(C#N)c(C(F)(F)F)c4)C(=O)C34CCC4)cc2F)CC1 [Cpd 109, 4-[6-[6-cyano-5-(trifluoromethyl)-3-pyridyl]-5-oxo-7-thioxo-6,8-diazaspiro[3.4]octan-8-yl]-2-fluoro-N-(1-methyl-4-piperidyl)benzamide]
- Emax [1, 5]: 98.4%
- IC50 [1]: 741 nM
- IC50 [2]: 1950 nM
- Emax [2, 5]: 97.9%
- EC50 [3, 6]: > 15100 nM
- Emax [3, 8]: 0.2%
- EC50 [4, 7]: > 15100 nM
- Emax [4, 8]: 1.1%

SMILES: CN1CCN(Cc2ccc(N3C(=S)N(c4cnc(C#N)c(C(F)(F)F)c4)C(=O)C34CCC4)cc2)CC1 [Cpd 30, 5-[8-[4-[(4-methylpiperazin-1-yl)methyl]phenyl]-5-oxo-7-thioxo-6,8-diazaspiro[3.4]octan-6-yl]-3-(trifluoromethyl)pyridine-2-carbonitrile]
- Emax [1, 5]: 98.8%
- IC50 [1]: 162 nM
- IC50 [2]: 331 nM
- Emax [2, 5]: 100%
- EC50 [3, 6]: > 15100 nM
- Emax [3, 8]: 0.1%
- EC50 [4, 7]: > 15100 nM
- Emax [4, 8]: 0.1%

SMILES: COCCCNC(=O)c1ccc(N2C(=S)N(c3cnc(C#N)c(C(F)(F)F)c3)C(=O)C23CCC3)cc1F [Cpd 24, 4-[6-[6-cyano-5-(trifluoromethyl)-3-pyridyl]-5-oxo-7-thioxo-6,8-diazaspiro[3.4]octan-8-yl]-2-fluoro-N-(3-methoxypropyl)benzamide]
- Emax [1, 5]: 99.5%
- IC50 [1]: 229 nM
- IC50 [2]: 331 nM
- Emax [2, 5]: 100%
- EC50 [3, 6]: > 15100 nM
- Emax [3, 8]: 0%
- EC50 [4, 7]: > 15100 nM
- Emax [4, 8]: 0.1%

SMILES: CS(=O)(=O)N1CCC(Oc2ccc(N3C(=S)N(c4cnc(C#N)c(C(F)(F)F)c4)C(=O)C34CCC4)cc2)CC1 [Cpd 122, 5-[8-[4-[(1-methylsulfonyl-4-piperidyl)oxy]phenyl]-5-oxo-7-thioxo-6,8-diazaspiro[3.4]octan-6-yl]-3-(trifluoromethyl)pyridine-2-carbonitrile]
- Emax [1, 5]: 90.5%
- IC50 [1]: 437 nM
- IC50 [2]: 302 nM
- Emax [2, 5]: 99.7%
- EC50 [3, 6]: > 15100 nM
- Emax [3, 8]: 2.2%
- EC50 [4, 7]: > 15100 nM
- Emax [4, 8]: 6.2%

SMILES: CCCNC(=O)c1ccc(N2C(=S)N(c3cnc(C#N)c(C(F)(F)F)c3)C(=O)C23CCC3)cc1F [Cpd 68, 4-[6-[6-cyano-5-(trifluoromethyl)-3-pyridyl]-5-oxo-7-thioxo-6,8-diazaspiro[3.4]octan-8-yl]-2-fluoro-N-propyl-benzamide]
- Emax [1]: 98%
- IC50 [1]: 427 nM
- IC50 [2]: 589 nM
- Emax [2]: 96.7%
- EC50 [3]: > 15100 nM
- Emax [3]: 0.2%
- EC50 [4]: > 15100 nM
- Emax [4]: 0.9%

SMILES: N#Cc1ncc(N2C(=O)C3(CCC3)N(c3ccc(Oc4ncccn4)cc3)C2=S)cc1C(F)(F)F [Cpd 107, 5-[5-oxo-8-(4-pyrimidin-2-yloxyphenyl)-7-thioxo-6,8-diazaspiro[3.4]octan-6-yl]-3-(trifluoromethyl)pyridine-2-carbonitrile]
- Emax [1, 5]: 97.3%
- IC50 [1]: 162 nM
- IC50 [2]: 562 nM
- Emax [2, 5]: 89.1%
- EC50 [3, 6]: > 15100 nM
- Emax [3, 8]: 2.1%
- EC50 [4, 7]: > 15100 nM
- Emax [4, 8]: 2.4%

SMILES: CNC(=O)c1ccc(N2C(=S)N(c3cnc(C#N)c(C)c3)C(=O)C23CCC3)cc1OC [Cpd 117, 4-[6-(6-cyano-5-methyl-3-pyridyl)-5-oxo-7-thioxo-6,8-diazaspiro[3.4]octan-8-yl]-2-methoxy-N-methyl-benzamide]
- Emax [1, 5]: 96.4%
- IC50 [1]: 288 nM
- IC50 [2]: 1260 nM
- Emax [2, 5]: 100%
- EC50 [3, 6]: > 15100 nM
- Emax [3, 8]: 0.7%
- EC50 [4, 7]: > 15100 nM
- Emax [4, 8]: 3.5%
